Measured values taken from US20080269317A1, “Compounds for Covalent Binding to MD-2 and Effect on the Immune Response” (priority 2005, published 2008).

Columns and labels:
MD-2 [1] = target: T1, MD-2 (Homo sapiens, UniProt Q9Y6Y9); assay: Binding to MD-2 monitored through the increase of the fluorescence (spectrofluorimeter); details: 100 nM MD-2 added to 200 nM compound in milliQ water, 25° C., time dependent
T1 construct: made in house; host or cells: Escherichia coli
T1 sequence (Q9Y6Y9 19-160): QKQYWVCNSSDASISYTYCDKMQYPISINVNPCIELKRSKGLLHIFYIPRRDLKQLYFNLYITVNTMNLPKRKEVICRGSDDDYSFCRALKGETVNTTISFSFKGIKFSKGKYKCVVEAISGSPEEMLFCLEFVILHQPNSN
Description: In the first example of the invention we used recombinant MD-2 produced in bacteria Escherichia coli to test the binding of the compounds, which contain a hydrophobic group and a group, which binds to the cysteine residue. This protein has biological activity as endogenous MD-2 and added protein enables response to LPS to cells lacking endogenous MD-2. We tested binding of compounds 2-(4′-(iodoacetamido)anilino)naphthalene-6-sulfonic acid (IAANS) and N-(1-pyrene)maleimide, which in addition to the above mentioned properties also have the additional feature of fluorescence, which makes them useful to show the principle of the invention. […] Change of the environment, which is a result of binding of the compound into the hydrophobic pocket, causes an increase of the fluorescence intensity of compounds, which is detected by measuring the emission fluorescence spectra using the spectrofluorimeter. […]
IAANS (Molecular Probes, USA) is an example of a compound with an alkylhalide group, which is reactive with a thiol group, an anilinonaphthalene group as a hydrophobic group and a sulfonic group as an anionic group. […] IAANS concentration was determined by measuring the absorbance at 326 nm in methanol (extinction coefficient at 326 nm in methanol is 27 000 cm^−1M^−1). […] Binding to MD-2 increases the fluorescence intensities of both compounds. […]

MonoMac6 cells [2] = assay: Inhibition of TNF-alpha synthesis (ELISA) in MonoMac6 cells stimulated with LPS; assay type: cell-based, human; details: different concentrations of IAANS, 1 hour, then 20 ng/ml LPS; supernatant after 20 hours
Description: The effect of certain compound on the cell activation by LPS can also be detected by determination of the amount of cytokines, which are released by the cell activation. Addition of LPS to macrophage cells (or other cells, which normally express MD-2 and TLR4) causes the secretion of inflammatory cytokines such as TNF-alpha, IL-1, IL-8 . . . […] The amount of cytokines released into the media can be determined by the ELISA test. For the experiment we used monocytic cells MonoMac6. To 96-well plate we seeded 1×10^5 cells per well in media for MonoMac6 cells (RPMI with 10% FBS, nonessential aminoacids and OPI (both from Sigma)). 50 ng/ml of phorbol 12-myristate […] (Sigma) needed for differentiation into macrophages was added to cells. IAANS was added at different concentrations and incubated 1 hour, followed by the addition of 20 ng/ml LPS. 20 hours after the stimulation we took the supernatant, centrifuged it for 3 min on 13 000 rpm and performed the ELISA test for TNF-alpha.
To MonoMac6 cells, which express MD-2 and TLR4, we added different concentrations of IAANS and LPS and determined the concentration of TNF-alpha in media using the ELISA test.

MonoMac6 cells [3] = assay: Activation of MonoMac6 cells without LPS, monitored through secreted TNF-alpha (ELISA); assay type: cell-based, human; details: different concentrations of IAANS, no LPS; supernatant after 20 hours
Description: The activation of the host innate immune system can have an important role for the treatment of diseases such as microbial infections, cancer and other diseases, where the participation of the innate immunity system is important. It is important that the compound, which activates the innate immune system has no other effects. If the compound activates the cells of the innate immunity, the same cytokines are secreted as by the activation with LPS, so the same assay can be used. For the assay we have used human monocytic cells MonoMac6. Into the 96-well plate we seeded 1×10^5 cells per well in the media for MonoMac6 cells. We added 50 ng/ml of phorbol 12-myristate […] (Sigma), which is needed for differentiation of cells into macrophages. Then we added different concentrations of IAANS and incubated. 20 hours after the stimulation we took the cell supernatants, centrifuged for 3 min at 13 000 rpm and performed ELISA test for TNF-alpha.
To MonoMac6 cells we added different concentrations of IAANS. […] Cells secreted TNF-alpha, which stimulates the innate immune response, which is important for the acquired immunity at vaccination or treatment of disease such as cancer, where the activation of host immune response is desirable. […]

MD-2 [4] = target: T1, MD-2; assay: Covalent binding to MD-2: fluorescence after GdnHCl denaturation and acetone precipitation, with or without iodoacetamide blocking
Protocol: In the second example of the invention we show, that binding of the compound to MD-2 is irreversible, therefore after binding to MD-2, compound remains permanently bound to the protein and therefore prevent binding of LPS or other ligands to MD-2.
The compounds with features mentioned above covalently bind to MD-2. The binding experiment was performed by adding to the concentration of MD-2 two times concentration excess of N-(1-pyrene) maleimide and incubated one hour at room temperature in the dark. The compound, which nonspecifically (noncovalently) bound to MD-2 was released from the protein by denaturation of the protein in 6 M guanidinium hydrochloride (GdnHCl). To the dissolved denatured protein we added five volumes of chilled (−20° C.) acetone and incubated for additional 60 min at −20° C. Then we centrifuged for 10 min at 13 000 rpm. […] The precipitate was dissolved in […] of 6 M GdnHCl and fluorescence emission spectrum was measured with excitation at 338 nm (FIG. 2). […] Binding of iodoacetamide inhibited binding of a compound to free cysteine residue on MD-2, which can be detected by lower fluorescence intensity of the compound.
We compared the fluorescence of MD-2, incubated with N-(1-pyrene) maleimide and to MD-2, with said compound, where we have previously added iodoacetamide for blocking free cysteine residues.

Row | SMILES | change of the fluorescence intensity at emission maximum after addition of MD-2 (MD-2 [1]) | inhibition of LPS dependent synthesis of TNF-alpha (MonoMac6 cells [2]) | activation of MonoMac6 cells (secreted TNF-alpha) (MonoMac6 cells [3]) | effect of previous incubation with iodoacetamide on binding of N-(1-pyrene) maleimide to MD-2 (MD-2 [4]; five molar excess of iodoacetamide added beforehand to block free cysteine residues) | covalent (irreversible) binding to MD-2: emission spectrum preserved in 6 M GdnHCl (MD-2 [4]; two times excess of compound, one hour at room temperature, denaturation in 6 M GdnHCl, acetone precipitation, excitation 338 nm)
1 | O=C(CI)Nc1ccc(Nc2ccc3cc(S(=O)(=O)O)ccc3c2)cc1 [IAANS, 2-(4′-(iodoacetamido)anilino)naphthalene-6-sulfonic acid] | increase of the IAANS fluorescence after binding to MD-2 | inhibited LPS dependent synthesis of TNF-alpha in a concentration-dependent manner | activated the cells in the concentration dependent manner | – | –
2 | NC(=O)CI [iodoacetamide, reference compound] | – | – | – | inhibited binding of N-(1-pyrene) maleimide to MD-2 | –
3 | O=C1C=CC(=O)N1c1ccc2ccc3cccc4ccc1c2c34 [N-(1-pyrene) maleimide, N-(1-pyrene)maleimide] | increase of the N-(1-pyrene) maleimide fluorescence after binding to MD-2 | – | – | – | irreversibly bound to MD-2
